Earlier results, collected in patent publication US20050158775A1, “Novel plamid DNA comprising reoprter gene DNA and use of the same” (priority 1997, published 2005).

System: PPAR γ
Conditions: at a concentration of 10 μM or less; cited from earlier work

CCCCC[C@H](O)/C=C/[C@@H]1[C@H]2C/C(=C/CCCC(=O)O)C[C@H]2C[C@H]1O [carbacyclin]
PPAR γ agonist activity: does not show PPAR γ agonist activity
